According to patent US20240166686A1, “THERAPEUTIC PEPTIDES” (Kyoto University, priority 2017, published 2024):
Read-outs that look alike come from different tables or passages of the source.

Key:
[1] = system: ddY mouse; experiment: Elevated plus-maze (EPM) test; format: in vivo
Method: The test was conducted 30 minutes after oral administration of a sample, and the evaluation was conducted based on the 5-minute test time. 23 to 27 g male ddY mice were used as animals to be studied. Cumulative time in open arms was recorded, and the percentage (%) of the time in open arms was used as an index for an anxiolytic-like effect.
The anxiolytic-like effect of a peptide or peptide conjugate can be evaluated by an elevated plus-maze test which has been developed as an anxiety-related behavior evaluation method for screening for anti-anxiety agents and is widely used (FIG. 1). Specifically, a candidate substance is orally or intraperitoneally administered to each mouse. 30 minutes later, the mouse is placed in an elevated plus-maze. The strength of the anxiolytic-like effect can be evaluated by using the number of entries into open arms and change in residence time in the open arms as indexes.
(§1) The elevated plus-maze consists of two open arms (25 cm×5 cm) and two closed arms (25 cm×5 cm×15 cm), and these arms are connected to a central platform elevated by 50 cm from the floor (see FIG. 1). In spite of such an elevated position, mice can walk safely in the closed arms because the closed arms are fenced. On the other hand, mice waking in the open arms feel anxious about falling from the elevated position because the open arms are open without being fenced. Therefore, a longer time when a mouse stays in the open arms means that mouse's feeling of anxiety is more alleviated, and serves as an index for an anxiolytic-like effect.
(§2) As shown in the right diagram of FIG. 1, a sample was administered to each mouse (ddY mouse, male, 23 to 27 g) 30 minutes before the test. 30 minutes later, the mouse was placed on the central platform facing one of the open arms to start the test. Cumulative time in the open arms was recorded during the 5-minute test time. The percentage of the time in the open arms was calculated as an index for an anxiolytic-like effect.
The data obtained by the test was indicated by the sum of a mean and a standard error of the mean (SEM). The data shown in FIGS. 1 to 9, 17, 18, 20, and 21 was analyzed by one-way or two-way ANOVA. Subsequently, study was conducted for multiple comparison by the Tukey Kramer method. P-value of <0.05 is denoted in the drawings as “*”; p-value of <0.01 is denoted in the drawings as “**”.

[2] = target: T1, serotonin 5-HT1A receptor (Mus musculus, UniProt Q64264); experiment: Elevated plus-maze test with 5-HT1A receptor antagonist WAY100135; format: in vivo; details: elevated plus-maze with or without WAY100135
T1 construct: from tissue; host or cells: whole living animal (ddY mouse, male)
T1 sequence (Q64264 1-421): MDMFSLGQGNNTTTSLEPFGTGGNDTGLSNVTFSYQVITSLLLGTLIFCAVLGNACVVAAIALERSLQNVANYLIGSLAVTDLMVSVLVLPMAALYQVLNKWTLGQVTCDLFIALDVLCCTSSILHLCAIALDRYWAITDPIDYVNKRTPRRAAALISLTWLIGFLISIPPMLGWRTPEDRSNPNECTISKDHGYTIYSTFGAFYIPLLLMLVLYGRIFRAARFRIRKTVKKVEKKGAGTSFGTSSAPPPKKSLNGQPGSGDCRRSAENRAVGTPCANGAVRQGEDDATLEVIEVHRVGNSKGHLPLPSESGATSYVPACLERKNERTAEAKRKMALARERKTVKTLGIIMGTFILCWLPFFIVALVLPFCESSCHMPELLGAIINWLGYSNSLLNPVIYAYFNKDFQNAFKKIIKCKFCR
Excerpt: as §1, §2
The peptide SYLPPLTT (SEQ ID NO: 1) or the peptide SYLPPLT (SEQ ID NO: 4) (dose: 1.0 mg/kg) was used in combination with a serotonin 5-HT1A receptor antagonist WAY100135 (dose: 10 mg/kg) and orally administered (p.o.) to each mouse, which was then used in the elevated plus-maze test (n=4 to 6).
The peptide YHIEPV (SEQ ID NO:2) was orally administered as a sample to mice 30 minutes before an elevated plus-maze test, with or without WAY100135, an antagonist selective for 5-HT1A receptor (n=13-15). WAY100135 was administered 50 minutes before the elevated plus-maze test. Separately, the peptide YHIEPV (SEQ ID NO:2) was orally administered as a sample to mice 30 minutes before an elevated plus-maze test, with or without naltrindole, an […] receptor antagonist, which was administered 50 minutes before the elevated plus-maze test (n=11-15).

[3] = target: T2, δ opioid receptor (Mus musculus, UniProt P32300); experiment: Elevated plus-maze test with opioid receptor antagonist naltrindole; format: in vivo; details: elevated plus-maze with or without naltrindole given 50 min before test; peptide oral 30 min before
T2 construct: orally administered as a sample to mice 30 minutes before an elevated plus-maze test, with or without naltrindole; from tissue; host or cells: whole living animal (ddY mouse, male)
Excerpt: as §1, §2
The peptide YHIEPV (SEQ ID NO:2) was orally administered as a sample to mice 30 minutes before an elevated plus-maze test, with or without WAY100135, an antagonist selective for 5-HT1A receptor (n=13-15). WAY100135 was administered 50 minutes before the elevated plus-maze test. […]

[4] = stated in Non Patent Literature 1; cited from earlier work
[5] = system: ddY mice; experiment: Tail suspension test; format: in vivo, mouse; details: 30 min before 6-min suspension
Method: Antidepressant-like effect can be evaluated by a tail suspension test. The tail suspension test is an experimental method used to screen potential antidepressant drugs (Can et al., 2012, J Vis Exp., 59:e3769). The amount of time that a mouse is immobile (i.e. is not displaying escape behavior) during the six minutes is measured to provide an immobility time. […] Therefore, if a reduction of immobility time is observed when testing a test substance, it can be concluded that the test substance has anti-depressant properties. Immobility is considered a despair state, and, therefore, a reduction of immobility time also indicates an increase in motivation (i.e., that the test substance has motivation-increasing properties).
The peptide SYLPPLT (SEQ ID NO: 4) was administered orally to mice (ddY mice, males, 24˜30 g) at 0.03 mg/kg, 0.1 mg/kg or 0.3 mg/kg and 30 minutes later the mice were suspended by their tails for six minutes.(n=11 to 14)

[6] = system: ddY mice; details: general statement on anti-depressant drugs; cited from earlier work
[7] = Example 16, oral, SYLPPLTT 0.3, 1, SYLPPLT 0.1, 0.3, 1, YHIEPV 1, 3, 10, diazepam 1, 3, 10 mg/kg, result not split by dose
[8] = oral 0.3 mg/kg, 30 min before 5-min test, vs vehicle saline
[9] = oral 1 mg/kg, 30 min before 5-min test, vs vehicle saline
[10] = oral 10 mg/kg, 30 min before 5-min test, vs vehicle saline
[11] = oral 0.1 mg/kg, 30 min before 5-min test, vs vehicle saline

T2 sequence (P32300 whole entry): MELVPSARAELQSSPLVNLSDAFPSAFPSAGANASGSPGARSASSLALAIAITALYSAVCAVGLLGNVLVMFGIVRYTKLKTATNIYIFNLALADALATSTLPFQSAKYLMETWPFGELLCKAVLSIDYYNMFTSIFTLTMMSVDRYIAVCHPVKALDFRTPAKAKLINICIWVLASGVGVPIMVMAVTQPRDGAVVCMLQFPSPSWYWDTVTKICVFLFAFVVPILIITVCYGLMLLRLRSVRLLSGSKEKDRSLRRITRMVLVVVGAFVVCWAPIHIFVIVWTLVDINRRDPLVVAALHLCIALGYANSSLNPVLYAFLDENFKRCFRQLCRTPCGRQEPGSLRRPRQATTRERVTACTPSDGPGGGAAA

Molecule: CN1C(=O)CN=C(c2ccccc2)c2cc(Cl)ccc21 [diazepam, Diazepam, reference compound]
- ratio of an open arm residence time [1, 7]: increase observed

Molecule: SYLPPL
- ratio of an open arm residence time [1, 8]: increased
- ratio of an open arm residence time [1, 9]: increased
- ratio of an open arm residence time [1, 10]: increased

Molecule: YLL (NYLLVKG)
- ratio of an open arm residence time [1, 11]: increased

Molecule: YLLVK
- ratio of an open arm residence time ([1]; oral 0.03 mg/kg, 30 min before 5-min test, vs vehicle saline): significantly increased
- ratio of an open arm residence time ([1]; oral 0.1 mg/kg, 30 min before 5-min test, vs vehicle saline, 0.1 mg/kg): significantly increased

Molecule: NYLLVKG
- ratio of an open arm residence time [1, 11]: increased

Molecule: YLLV
- ratio of an open arm residence time [1, 11]: increased

Molecule: SYLPPLTT
- ratio of an open arm residence time [1, 7]: increased
- ratio of an open arm residence time [1, 8]: increased
- ratio of an open arm residence time [1, 9]: statistically significant
- anxiolytic-like effect mediated by serotonin 5-HT1A receptor [2]: mediated by activation of serotonin 5-HT1A receptor

Molecule: YLLVR
- ratio of an open arm residence time [1, 11]: increased

Molecule: YHIEPV
- ratio of an open arm residence time [1, 7]: increased
- ratio of an open arm residence time [1, 9]: increased
- ratio of an open arm residence time ([1]; oral 3 mg/kg, 30 min before 5-min test, vs vehicle saline): statistically significant
- ratio of an open arm residence time [1, 10]: statistically significant
- anxiolytic-like effect mediated by serotonin 5-HT1A receptor [2]: not mediated by activation of serotonin 5-HTopio1A receptor
- anxiolytic-like effect mediated by opioid receptor [3]: mediated by activation 8-opioid receptor

Molecule: WLLVK
- ratio of an open arm residence time [1, 11]: increased

Molecule: LVK
- ratio of an open arm residence time [1, 11]: increased

Molecule: FLLVK
- ratio of an open arm residence time [1, 11]: increased

Molecule: YLLAVK
- ratio of an open arm residence time [1, 7]: increased
- ratio of an open arm residence time [1, 11]: increased

Molecule: Rubiscolin-6
- anxiolytic effect [4]: has an anxiolytic effect

Molecule: YLVK
- ratio of an open arm residence time [1, 11]: increased

Molecule: LLVK
- ratio of an open arm residence time [1, 11]: increased

Molecule: SYLPPLT
- ratio of an open arm residence time [1, 7]: increased
- ratio of an open arm residence time [1, 11]: increased
- ratio of an open arm residence time [1, 8]: increased
- ratio of an open arm residence time [1, 9]: statistically significant
- anxiolytic-like effect mediated by serotonin 5-HT1A receptor [2]: mediated by activation of serotonin 5-HT1A receptor
- immobility time ([5]; oral 0.03 mg/kg): decrease
- immobility time ([5]; oral 0.1 mg/kg): decrease
- immobility time ([5]; oral 0.3 mg/kg): decrease

Molecule: CN(C)CCCN1c2ccccc2CCc2ccccc21 [imipramine]
- immobility time [6]: reduces immobility time

Molecule: YLLNNK
- ratio of an open arm residence time [1, 11]: increased
